We go through 19 compounds from patent publication US11485742B2, “2-azaspiro[3.4]octane derivatives as M4 agonists” (NOVARTIS AG, priority 2019, dated 2022).

Assay [1] addresses T1, human cloned CHRM3 receptor (Homo sapiens, UniProt P20309).
T1 construct: expressed in transfected cells; host or cells: CHO-K1 (M3_CHO)
Kind of assay: CHRM3 Ca++ Flux Assay (M3_CHO cells, agonist mode). The assay is classed as cell-based. Conditions: for Emax: Percent Activity (PA) measured to EC100 of Carbachol, read-out: M3 FDSS PA %; for EC50: agonist mode, geometric mean if tested more than once, read-out: M3 FDSS EC50. The procedure, abridged:
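Agonist-mode calcium mobilisation: compounds, 11 concentrations in triplicate, applied to stable M3_CHO or M5_CHO cells loaded with Ca++ dye, fluorescence followed 3 min. Efficacy expressed against carbachol EC100; EC curves by four-parameter nonlinear regression, geometric mean across independent runs.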

Assay [2] deals with T2, Cloned human M1 receptor (CHRM1) (Homo sapiens, UniProt P11229).
T2 construct: expressed in transfected cells; host or cells: HEK293
T2 sequence (P11229 1-460): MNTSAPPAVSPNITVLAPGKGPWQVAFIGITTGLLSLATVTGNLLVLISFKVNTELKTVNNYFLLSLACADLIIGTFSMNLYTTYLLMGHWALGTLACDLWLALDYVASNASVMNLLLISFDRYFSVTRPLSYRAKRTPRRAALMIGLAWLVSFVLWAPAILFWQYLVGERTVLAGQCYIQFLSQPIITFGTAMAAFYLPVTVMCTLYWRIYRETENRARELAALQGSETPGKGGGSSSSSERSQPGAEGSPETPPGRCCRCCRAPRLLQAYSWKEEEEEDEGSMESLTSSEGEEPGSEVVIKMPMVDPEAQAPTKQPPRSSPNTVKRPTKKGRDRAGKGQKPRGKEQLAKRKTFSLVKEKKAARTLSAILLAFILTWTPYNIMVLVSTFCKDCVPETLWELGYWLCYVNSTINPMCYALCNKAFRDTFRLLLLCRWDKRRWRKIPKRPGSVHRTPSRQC
Description: CHRM1 Ca++ Flux Assay (HEK293 M1 cells, agonist mode). The conditions noted are these: for Emax: Percent Activity (PA), read-out: M1 FDSS PA %; for EC50: geometric mean if tested more than once, read-out: M1 FDSS EC50. The assay is classed as cell-based. A digest of the protocol: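 In agonist mode, compound-induced intracellular Ca++ mobilization was recorded for 3 min by fluorescent imager. The cells were HEK293 stably expressing cloned human CHRM1, in Ca/Mg-free HBSS with 20 mM HEPES. Triplicate 11-point dose-responses were fitted by four-parameter regression and normalized to the carbachol EC100 response.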

T1 sequence (P20309 whole entry): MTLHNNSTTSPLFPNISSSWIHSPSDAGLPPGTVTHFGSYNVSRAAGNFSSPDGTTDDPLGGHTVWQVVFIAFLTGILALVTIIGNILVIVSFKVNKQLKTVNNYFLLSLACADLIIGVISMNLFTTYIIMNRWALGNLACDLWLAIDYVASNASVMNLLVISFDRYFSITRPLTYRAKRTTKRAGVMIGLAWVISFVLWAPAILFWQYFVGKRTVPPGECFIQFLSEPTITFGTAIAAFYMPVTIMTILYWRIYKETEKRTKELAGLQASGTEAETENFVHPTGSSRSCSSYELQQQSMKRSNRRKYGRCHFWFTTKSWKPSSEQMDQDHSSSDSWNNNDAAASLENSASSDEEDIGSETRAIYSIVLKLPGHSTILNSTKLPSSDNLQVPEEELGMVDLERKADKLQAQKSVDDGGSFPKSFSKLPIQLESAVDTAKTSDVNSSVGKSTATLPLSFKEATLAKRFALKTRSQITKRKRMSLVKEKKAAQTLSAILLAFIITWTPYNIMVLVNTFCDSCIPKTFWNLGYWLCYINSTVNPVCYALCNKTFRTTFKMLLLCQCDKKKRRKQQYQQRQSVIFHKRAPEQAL

In the case of `Fc1cc(O[C@@H]2CCOC2)c(C2CCN([C@@H]3COC4(C3)CN(c3nnco3)C4)CC2)cc1F` [Example 1R, (S)-7-(4-(4,5-difluoro-2-(((R)-tetrahydrofuran-3-yl)oxy)phenyl)piperidin-1-yl)-2-(1,3,4-oxadiazol-2-yl)-5-oxa-2-azaspiro[3.4]octane], in assay [1], the Emax amounted to 0% and the EC50 (in general, the concentration that produces a half-maximal response) is above 25000 nM. Also, in assay [2], the Emax came to 76% and the EC50 came to 670 nM.

On to `Cc1cc(COc2ccc(F)cc2C2CCN([C@@H]3COC4(C3)CN(c3nnco3)C4)CC2)on1` [Example 2G, (S)-7-(4-(5-fluoro-2-((3-methylisoxazol-5-yl)methoxy)phenyl)piperidin-1-yl)-2-(1,3,4-oxadiazol-2-yl)-5-oxa-2-azaspiro[3.4]octane], for which, in assay [1], the Emax was 0% and the EC50 is above 25000 nM. In addition, in assay [2], the Emax amounted to 89% and the EC50 was determined as 289 nM.

Take `Fc1ccc(OC[C@H]2CCCO2)c(C2CCN([C@@H]3COC4(C3)CN(c3nnco3)C4)CC2)c1` [Example 2M, (S)-7-(4-(5-fluoro-2-(((R)-tetrahydrofuran-2-yl)methoxy)phenyl)piperidin-1-yl)-2-(1,3,4-oxadiazol-2-yl)-5-oxa-2-azaspiro[3.4]octane]: the figures for the Emax in assay [1] and in assay [2] were 0% and 7%, respectively. Also, the values for the EC50 in assay [1] and in assay [2] were above 25000 nM and 3570 nM, respectively.

For the compound `Fc1ccc(OC2COCOC2)c(C2CCN([C@@H]3COC4(C3)CN(c3nnco3)C4)CC2)c1` [Example 1M, (S)-7-(4-(2-((1,3-dioxan-5-yl)oxy)-5-fluorophenyl)piperidin-1-yl)-2-(1,3,4-oxadiazol-2-yl)-5-oxa-2-azaspiro[3.4]octane], in assay [1], the Emax was 0% and the EC50 is above 25000 nM. Further, in assay [2], the Emax stood at 89% and the EC50 turned out to be 1370 nM.

For the compound `Fc1ccc(OC[C@H]2CCOC2)c(C2CCN([C@@H]3COC4(C3)CN(c3nncs3)C4)CC2)c1` [Example 5X, (S)-7-(4-(5-fluoro-2-(((S)-tetrahydrofuran-3-yl)methoxy)phenyl)piperidin-1-yl)-2-(1,3,4-thiadiazol-2-yl)-5-oxa-2-azaspiro[3.4]octane], in assay [1], the Emax amounted to 0% and the EC50 is above 25000 nM. In assay [2], the Emax is 75% and the EC50 worked out at 2340 nM.

On to `CC(C)(O)CCOc1cc(F)ccc1C1CCN([C@@H]2COC3(C2)CN(c2nnco2)C3)CC1` [Example 1T, (S)-4-(2-(1-(2-(1,3,4-oxadiazol-2-yl)-5-oxa-2-azaspiro[3.4]octan-7-yl)piperidin-4-yl)-5-fluorophenoxy)-2-methylbutan-2-ol], for which the figures for the Emax in assay [1] and in assay [2] were 0% and 74%, respectively. Moreover, the values for the EC50 in assay [1] and in assay [2] were above 25000 nM and 640 nM, respectively.

On to `Fc1ccc(OC2CC3(COC3)C2)c(C2CCN([C@H]3COC4(C3)CN(c3nnco3)C4)CC2)c1` [Example 7A, (R)-7-(4-(2-((2-oxaspiro[3.3]heptan-6-yl)oxy)-5-fluorophenyl)piperidin-1-yl)-2-(1,3,4-oxadiazol-2-yl)-5-oxa-2-azaspiro[3.4]octane], for which, in assay [1], the Emax was found to be 0% and the EC50 is above 25000 nM. Further, in assay [2], the Emax came out at 0% and the EC50 is above 25000 nM.

Consider `Fc1ccc(OCC2(F)COC2)c(C2CCN([C@@H]3COC4(C3)CN(c3nnco3)C4)CC2)c1` [Example 2J, (S)-7-(4-(5-fluoro-2-((3-fluorooxetan-3-yl)methoxy)phenyl)piperidin-1-yl)-2-(1,3,4-oxadiazol-2-yl)-5-oxa-2-azaspiro[3.4]octane], for which the figures for the Emax in assay [1] and in assay [2] were 0% and 103%, respectively. Moreover, the results for the EC50 in assay [1] and in assay [2] were above 25000 nM and 411 nM, respectively.

As for `CC(C)(O)CCOc1ccc(F)cc1C1CCN([C@@H]2COC3(C2)CN(c2nnco2)C3)CC1` [Example 1N, (S)-4-(2-(1-(2-(1,3,4-oxadiazol-2-yl)-5-oxa-2-azaspiro[3.4]octan-7-yl)piperidin-4-yl)-4-fluorophenoxy)-2-methylbutan-2-ol], in assay [1], the Emax was determined as 0% and the concentration giving a half-maximal response (EC50) was above 25000 nM. Besides, in assay [2], the Emax is 82% and the EC50 was 376 nM.

Turning to `CCC1(COc2ccc(F)cc2C2CCN([C@@H]3COC4(C3)CN(c3nnco3)C4)CC2)COC1` [Example 2P, (S)-7-(4-(2-((3-ethyloxetan-3-yl)methoxy)-5-fluorophenyl)piperidin-1-yl)-2-(1,3,4-oxadiazol-2-yl)-5-oxa-2-azaspiro[3.4]octane], in assay [1], the Emax turned out to be 0% and the EC50 was above 25000 nM. Besides, in assay [2], the Emax came out at 71% and the EC50 amounted to 2080 nM.

As to `Fc1ccc(OC2CC3(COC3)C2)c(C2CCN([C@@H]3COC4(C3)CN(c3ncon3)C4)CC2)c1` [Example 6C, (S)-7-(4-(2-((2-oxaspiro[3.3]heptan-6-yl)oxy)-5-fluorophenyl)piperidin-1-yl)-2-(1,2,4-oxadiazol-3-yl)-5-oxa-2-azaspiro[3.4]octane], in assay [1], the Emax came out at 0% and the concentration for a half-maximal effect (EC50) was above 25000 nM. Also, in assay [2], the Emax came out at 65% and the EC50 was 2420 nM.

For `Cc1nnc(-c2ccccc2C2CCN([C@@H]3COC4(C3)CN(c3nnco3)C4)CC2)o1` [Example 1Y, (S)-7-(4-(2-(5-methyl-1,3,4-oxadiazol-2-yl)phenyl)piperidin-1-yl)-2-(1,3,4-oxadiazol-2-yl)-5-oxa-2-azaspiro[3.4]octane], the Emax in assay [1] amounted to 0%; in assay [2], 107%. Moreover, the values for the EC50 in assay [1] and in assay [2] were above 25000 nM and 579 nM, respectively.

On to `Fc1ccc(OCC2COC2)c(C2CCN([C@@H]3COC4(C3)CN(c3nnco3)C4)CC2)c1` [Example 2H, (S)-7-(4-(5-fluoro-2-(oxetan-3-ylmethoxy)phenyl)piperidin-1-yl)-2-(1,3,4-oxadiazol-2-yl)-5-oxa-2-azaspiro[3.4]octane], for which, in assay [1], the Emax is 0% and the EC50 is above 25000 nM. For the same compound, in assay [2], the Emax stood at 101% and the EC50 turned out to be 542 nM.

For the compound `OC1(COc2ccc(F)cc2C2CCN([C@@H]3COC4(C3)CN(c3nnco3)C4)CC2)COC1` [Example 2U, (S)-3-((2-(1-(2-(1,3,4-oxadiazol-2-yl)-5-oxa-2-azaspiro[3.4]octan-7-yl)piperidin-4-yl)-4-fluorophenoxy)methyl)oxetan-3-ol], in assay [1], the Emax is 0% and the EC50 is above 25000 nM. Besides, in assay [2], the Emax was determined as 81% and the EC50 turned out to be 223 nM.

As for `Fc1ccc(OC2CC3(COC3)C2)c(C2CCN([C@@H]3COC4(C3)CN(c3nncs3)C4)CC2)c1` [Example 5W, (S)-7-(4-(2-((2-oxaspiro[3.3]heptan-6-yl)oxy)-5-fluorophenyl)piperidin-1-yl)-2-(1,3,4-thiadiazol-2-yl)-5-oxa-2-azaspiro[3.4]octane], in assay [1], the Emax came out at 0% and the EC50 was above 25000 nM. In addition, in assay [2], the Emax came out at 68% and the EC50 stood at 3590 nM.

In the case of `CC1(COc2ccc(F)cc2C2CCN([C@@H]3COC4(C3)CN(c3nnco3)C4)CC2)COC1` [Example 2K, (S)-7-(4-(5-fluoro-2-((3-methyloxetan-3-yl)methoxy)phenyl)piperidin-1-yl)-2-(1,3,4-oxadiazol-2-yl)-5-oxa-2-azaspiro[3.4]octane], in assay [1], the Emax was 0% and the EC50 is above 25000 nM. Further, in assay [2], the Emax was found to be 97% and the EC50 is 1360 nM.

On to `Fc1ccc(OC[C@H]2CCOC2)c(C2CCN([C@@H]3COC4(C3)CN(c3nnco3)C4)CC2)c1` [Example 1I, (S)-7-(4-(5-fluoro-2-(((S)-tetrahydrofuran-3-yl)methoxy)phenyl)piperidin-1-yl)-2-(1,3,4-oxadiazol-2-yl)-5-oxa-2-azaspiro[3.4]octane], for which the values for the Emax in assay [1] and in assay [2] were 0% and 54%, respectively. Also, the EC50 in assay [1] is above 25000 nM; in assay [2], 980 nM.

Turning to `Fc1ccc(OCC2COC2)c(C2CCN([C@@H]3COC4(C3)CN(c3nncs3)C4)CC2)c1` [Example 2A, (S)-7-(4-(5-fluoro-2-(oxetan-3-ylmethoxy)phenyl)piperidin-1-yl)-2-(1,3,4-thiadiazol-2-yl)-5-oxa-2-azaspiro[3.4]octane], in assay [1], the Emax was 0% and the EC50 was above 25000 nM. Further, in assay [2], the Emax stood at 103% and the EC50 was 553 nM.

On to `Cc1nnc(COc2ccc(F)cc2C2CCN([C@@H]3COC4(C3)CN(c3nnco3)C4)CC2)o1` [Example 2F, (S)-7-(4-(5-fluoro-2-((5-methyl-1,3,4-oxadiazol-2-yl)methoxy)phenyl)piperidin-1-yl)-2-(1,3,4-oxadiazol-2-yl)-5-oxa-2-azaspiro[3.4]octane], for which the Emax in assay [1] is 0%; in assay [2], 103%. For the same compound, the EC50 in assay [1] is above 25000 nM; in assay [2], 61 nM.
